From doi:10.1101/261990v1 (biorxiv, 2018)

Experiments:
[1] = molecular target: T1, MGIC (Myoinhibitory peptide-Gated Ion Channel; ENaC5) (Platynereis dumerilii, UniProt A0A2S1B6I3); experiment: two-electrode voltage clamp, Xenopus oocytes; assay type: cell-based
T1 sequence (A0A2S1B6I3 1-589): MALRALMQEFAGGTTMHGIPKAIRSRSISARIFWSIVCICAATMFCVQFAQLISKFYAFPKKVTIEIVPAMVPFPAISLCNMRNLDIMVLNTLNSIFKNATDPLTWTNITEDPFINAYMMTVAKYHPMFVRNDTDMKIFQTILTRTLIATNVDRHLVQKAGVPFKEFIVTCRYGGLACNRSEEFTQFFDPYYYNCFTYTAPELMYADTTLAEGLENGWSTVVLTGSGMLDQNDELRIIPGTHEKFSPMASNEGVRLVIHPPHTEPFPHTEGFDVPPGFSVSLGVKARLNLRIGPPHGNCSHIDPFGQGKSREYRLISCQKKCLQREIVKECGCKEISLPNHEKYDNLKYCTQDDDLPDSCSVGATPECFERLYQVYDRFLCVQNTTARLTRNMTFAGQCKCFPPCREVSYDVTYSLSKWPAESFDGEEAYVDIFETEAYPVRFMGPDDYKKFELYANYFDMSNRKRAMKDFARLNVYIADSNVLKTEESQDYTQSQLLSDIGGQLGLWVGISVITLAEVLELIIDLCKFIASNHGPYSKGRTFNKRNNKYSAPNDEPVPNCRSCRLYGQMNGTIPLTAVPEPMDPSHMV

[2] = molecular target: T1, MGIC (Myoinhibitory peptide-Gated Ion Channel; ENaC5); experiment: two-electrode voltage clamp, Xenopus oocytes; assay type: cell-based; conditions: read-out: % of control current at 50 μM

IC50 [1] [µM] | remaining activity at 50 µM [2] [%] | Structure (SMILES)
0.73 ± 0.16 | – | N=C(N)c1ccc(/N=N/Nc2ccc(C(=N)N)cc2)cc1 [diminazene]
– | 74 ± 3 | NC(=NC(=O)c1nc(Cl)c(N)nc1N)NCc1ccccc1 [benzamil]
– | 45 ± 4 | NC(=NC(=O)c1nc(Cl)c(N)nc1N)Nc1ccccc1 [phenamil]
13 ± 2 | – | N=C(N)NC(=O)c1nc(Cl)c(N)nc1N [amiloride]
